ChEMBL document CHEMBL3885881, “DrugMatrix”

Organism: Rattus norvegicus
Test: DrugMatrix - Regimen: Daily Repeat
Format: toxicity, organism-based, Sprague-Dawley
Parameters: regimen Daily Repeat, gender Male, age 6-8 weeks
Details: in vivo, po, route oral GAVAGE, […]; for ABSOLUTE BASOPHIL / ABSOLUTE EOSINOPHIL / ABSOLUTE LYMPHOCYTE / ABSOLUTE MONOCYTE / ABSOLUTE SEGMENTED NEUTROPHIL / BASOPHIL / EOSINOPHIL / ERYTHROCYTE COUNT / HEMATOCRIT / HEMOGLOBIN / LEUKOCYTE COUNT / LYMPHOCYTE / MEAN CORPUSCULAR HEMOGLOBIN / MEAN CORPUSCULAR HEMOGLOBIN CONCENTRATION / MEAN CORPUSCULAR VOLUME / MONOCYTE / NEUTROPHIL / NUCLEATED RED BLOOD CELLS / PLATELET COUNT: tissue Blood; for ALANINE AMINOTRANSFERASE / ALBUMIN / ALKALINE PHOSPHATASE / ASPARTATE AMINOTRANSFERASE / BLOOD UREA NITROGEN / CARBON DIOXIDE / CHLORIDE / CHOLESTEROL / CREATINE PHOSPHOKINASE / CREATININE / GLUCOSE / LACTATE DEHYDROGENASE / LIPASE / PHOSPHORUS / POTASSIUM / SODIUM / TOTAL BILIRUBIN / TOTAL PROTEIN / URIC ACID: tissue Plasma
[1] = 0 mg/kg, 72 h, dose level Control, time 3 day
[2] = 0 mg/kg, 120 h, dose level Control, time 5 day
[3] = 50 mg/kg, 72 h, dose level Low, time 3 day

## Oc1ncnc2[nH]ncc12 [ALLOPURINOL]
[1]
  ABSOLUTE BASOPHIL: 0 CELLS/uL
  ABSOLUTE EOSINOPHIL: 0 CELLS/uL
  ABSOLUTE LYMPHOCYTE: 14687.67 CELLS/uL
  ABSOLUTE MONOCYTE: 164 CELLS/uL
  ABSOLUTE SEGMENTED NEUTROPHIL: 1748.33 CELLS/uL
  BASOPHIL: 0%
  EOSINOPHIL: 0%
  ERYTHROCYTE COUNT: 5.51 x10E6/uL
  HEMATOCRIT: 33.68%
  HEMOGLOBIN: 13.4 G/DL
  LEUKOCYTE COUNT: 16.6 x10E3/uL
  LYMPHOCYTE: 88.83%
  MEAN CORPUSCULAR HEMOGLOBIN: 24.47 pg
  MEAN CORPUSCULAR HEMOGLOBIN CONCENTRATION: 39.82 G/DL
  MEAN CORPUSCULAR VOLUME: 61.23 fL
  MONOCYTE: 0.83%
  NEUTROPHIL: 10.33%
  NUCLEATED RED BLOOD CELLS: 0 /100WBC
  PLATELET COUNT: 1329.67 x10E3/uL
  ALANINE AMINOTRANSFERASE: 61.33 u/L
  ALBUMIN: 4.18 G/DL
  ALKALINE PHOSPHATASE: 332.5 u/L
  ASPARTATE AMINOTRANSFERASE: 98.33 u/L
  BLOOD UREA NITROGEN: 15.83 mg/dL
  CARBON DIOXIDE: 27.83 mmol/L
  CHLORIDE: 100 MEQ/L
  CHOLESTEROL: 76.17 mg/dL
  CREATINE PHOSPHOKINASE: 729.17 u/L
  CREATININE: 0.21 mg/dL
  GLUCOSE: 151.83 mg/dL
  LACTATE DEHYDROGENASE: 484.67 u/L
  LIPASE: 10 u/L
  PHOSPHORUS: 11.3 mg/dL
  POTASSIUM: 6.1 MEQ/L
  SODIUM: 142.9 MEQ/L
  TOTAL BILIRUBIN: 0.23 mg/dL
  TOTAL PROTEIN: 5.68 G/DL
  URIC ACID: 1.75 mg/dL
[2]
  ABSOLUTE BASOPHIL: 0 CELLS/uL
  ABSOLUTE EOSINOPHIL: 58.67 CELLS/uL
  ABSOLUTE LYMPHOCYTE: 15950.83 CELLS/uL
  ABSOLUTE MONOCYTE: 172.5 CELLS/uL
  ABSOLUTE SEGMENTED NEUTROPHIL: 2551.33 CELLS/uL
  BASOPHIL: 0%
  EOSINOPHIL: 0.33%
  ERYTHROCYTE COUNT: 5.5 x10E6/uL
  HEMATOCRIT: 34.05%
  HEMOGLOBIN: 13.42 G/DL
  LEUKOCYTE COUNT: 18.73 x10E3/uL
  LYMPHOCYTE: 84.5%
  MEAN CORPUSCULAR HEMOGLOBIN: 24.42 pg
  MEAN CORPUSCULAR HEMOGLOBIN CONCENTRATION: 39.42 G/DL
  MEAN CORPUSCULAR VOLUME: 61.97 fL
  MONOCYTE: 1%
  NEUTROPHIL: 14.17%
  NUCLEATED RED BLOOD CELLS: 0.33 /100WBC
  PLATELET COUNT: 1143.17 x10E3/uL
  ALANINE AMINOTRANSFERASE: 57 u/L
  ALBUMIN: 4.17 G/DL
  ALKALINE PHOSPHATASE: 347.33 u/L
  ASPARTATE AMINOTRANSFERASE: 93.67 u/L
  BLOOD UREA NITROGEN: 15.67 mg/dL
  CARBON DIOXIDE: 27.17 mmol/L
  CHLORIDE: 104.33 MEQ/L
  CHOLESTEROL: 69.5 mg/dL
  CREATINE PHOSPHOKINASE: 317.17 u/L
  CREATININE: 0.2 mg/dL
  GLUCOSE: 162.33 mg/dL
  LACTATE DEHYDROGENASE: 408.67 u/L
  LIPASE: 10.17 u/L
  PHOSPHORUS: 11.08 mg/dL
  POTASSIUM: 6.36 MEQ/L
  SODIUM: 146.07 MEQ/L
  TOTAL BILIRUBIN: 0.22 mg/dL
  TOTAL PROTEIN: 5.92 G/DL
  URIC ACID: 1.47 mg/dL
[3]
  ABSOLUTE BASOPHIL: 0 CELLS/uL
  ABSOLUTE EOSINOPHIL: 127 CELLS/uL
  ABSOLUTE LYMPHOCYTE: 14701 CELLS/uL
  ABSOLUTE MONOCYTE: 340.67 CELLS/uL
  ABSOLUTE SEGMENTED NEUTROPHIL: 1864.67 CELLS/uL
  BASOPHIL: 0%
  EOSINOPHIL: 1%
  ERYTHROCYTE COUNT: 5.8 x10E6/uL
  HEMATOCRIT: 35.57%
  HEMOGLOBIN: 14.13 G/DL
  LEUKOCYTE COUNT: 17.03 x10E3/uL
  LYMPHOCYTE: 86.33%
  MEAN CORPUSCULAR HEMOGLOBIN: 24.4 pg
  MEAN CORPUSCULAR HEMOGLOBIN CONCENTRATION: 39.77 G/DL
  MEAN CORPUSCULAR VOLUME: 61.43 fL
  MONOCYTE: 2%
  NEUTROPHIL: 10.67%
  NUCLEATED RED BLOOD CELLS: 0 /100WBC
  PLATELET COUNT: 1335 x10E3/uL
  ALANINE AMINOTRANSFERASE: 47.67 u/L
  ALBUMIN: 3.9 G/DL
  ALKALINE PHOSPHATASE: 391.33 u/L
  ASPARTATE AMINOTRANSFERASE: 101 u/L
  BLOOD UREA NITROGEN: 54.33 mg/dL
  CARBON DIOXIDE: 31.33 mmol/L
  CHLORIDE: 101.67 MEQ/L
  CHOLESTEROL: 88.33 mg/dL
  CREATINE PHOSPHOKINASE: 732.33 u/L
  CREATININE: 1.13 mg/dL
  GLUCOSE: 142 mg/dL
  LACTATE DEHYDROGENASE: 354.67 u/L
  LIPASE: 10 u/L
  PHOSPHORUS: 10.1 mg/dL
  POTASSIUM: 6.99 MEQ/L
  SODIUM: 146.8 MEQ/L
  TOTAL BILIRUBIN: 0.2 mg/dL
  TOTAL PROTEIN: 5.93 G/DL
  URIC ACID: 0.2 mg/dL
